Test results as given in US20110224208A1, “NOVEL INHIBITORS OF FLAVIVIRUS REPLICATION” (KATHOLIEKE UNIVERSITEIT LEUVEN, K.U. LEUVEN R&D, priority 2008, published 2011).
≈ marks a conversion by molar mass, not a printed value.

Tests used:
[1] = system: HCV replicon (RNA) synthesis; assay: Quantitative analysis of HCV replicon RNA by Taqman real-time RT-PCR in Huh-5-2 cells; format: cell-based, Hepatitis C virus; conditions: for EC50: Hepatitis C virus, Huh-5-2, concentration required to reduce the synthesis of HCV replicon by 50% as determined by real-time quantitative RT-PCR; for CT: Huh-5-2 cells, untreated 26.27 ± 0.34; for Delta CT: higher Delta CT = more profound inhibition of viral RNA synthesis
Procedure: Replicon cells were plated at 7.5×10^3 cells per well in a 96-well plate plates at 37° C. and 5% CO2 in Dulbecco's modified essential medium containing 10% fetal calf serum, 1% nonessential amino acids and 1 mg/ml Geneticin. After allowing 24 h for cell attachment, different dilutions of compound were added to the cultures. Plates were incubated for 5 days, at which time RNA was extracted using the Qiamp Rneazyi Kit (Qiagen, Hilden, Germany). […] After initial activation of uracil-N-glycosylase at 50° C. for 2 minutes, RT was performed at 60° C. for 30 minutes, followed by inactivation of uracil-N-glycosylase at 95° C. for 5 minutes. Subsequent PCR amplification consisted of 40 cycles of denaturation at 94° C. for 20 seconds and annealing and extension at 62° C. for 1 minute in an ABI 7700 sequence detector. For each PCR run, negative template and positive template samples were used. The cycle threshold value (Ct-value) is defined as the number of PCR cycles for which the signal exceeds the baseline, which defines a positive value. The sample was considered to be positive if the Ct-value was <50. Results are expressed as genomic equivalents (GE).

[2] = system: HCV replicon I389luc-ubi-neo/NS3-3'/5.1; assay: Anti-HCV replicon assay (luciferase activity) in Huh-5-2 cells; format: cell-based, Hepatitis C virus; conditions: Hepatitis C virus, Huh-5-2, 72 h, concentration required to inhibit luciferase activity in the replicon system by 50%
Method in brief: (§1)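 Huh-5-2 cells carrying the luciferase HCV replicon, seeded 24 h, then exposed to serial compound dilutions without G418 for 72 h at 37° C, 5% CO2. Replication read as luciferase luminescence, expressed as percentage of untreated cultures; culture density measured in parallel by MTS.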

[3] = Proliferation of exponentially growing Huh-5-2 cells (MTS method); conditions: human, CC50, concentration required to inhibit the proliferation of exponentially growing Huh-5-2 cells by 50%; Table 2
Method in brief: as §1

SMILES	EC50 [1] [µg/mL]	IC50 [2] [µg/mL]	also measured
COCCN1C(=O)c2ccccc2C(C(=O)Nc2ccc(OC)c(OC)c2)C1c1cccs1 (stereo not shown) [C48, N-(3,4-dimethoxyphenyl)-2-(2-methoxyethyl)-1-oxo-3-(thiophen-2-yl)-1,2,3,4-tetrahydroisoquinoline-4-carboxamide]	0.6 (≈ 1.29 µM)	0.3 (≈ 0.643 µM)	
COCCN1C(=O)c2ccccc2C(C(=O)Nc2cccc(F)c2)C1c1cccs1 (stereo not shown) [C47, N-(3-fluorophenyl)-2-(2-methoxyethyl)-1-oxo-3-(thiophen-2-yl)-1,2,3,4-tetrahydroisoquinoline-4-carboxamide]	1.42 (≈ 3.35 µM)	0.4 (≈ 0.942 µM)	
COCCN1C(=O)c2ccccc2C(C(=O)Nc2cccc(OC)c2)C1c1cccs1 (stereo not shown) [2-(2-methoxyethyl)-N-(3-methoxyphenyl)-1-oxo-3-(thiophen-2-yl)-1,2,3,4-tetrahydroisoquinoline-4-carboxamide]			CT ([1]; 5 ug/ml): 28.65; Delta CT ([1]; 5 ug/ml): 2.38; CT ([1]; 10 ug/ml): 29.29; Delta CT ([1]; 10 ug/ml): 3.02; CT ([1]; 20 ug/ml): 29.24; Delta CT ([1]; 20 ug/ml): 2.97
COCCN1C(=O)c2ccccc2C(C(=O)Nc2ccc(-n3cccc3)cc2)C1c1ccc(Cl)s1 (stereo not shown) [C153, N-(4-(1H-pyrrol-1-yl)phenyl)-3-(5-chlorothiophen-2-yl)-2-(2-methoxyethyl)-1-oxo-1,2,3,4-tetrahydroisoquinoline-4-carboxamide]	1.12 (≈ 2.21 µM)	0.104 (≈ 0.206 µM)	
COCCN1C(=O)c2ccccc2C(C(=O)Nc2ccc(-c3cnco3)cc2)C1c1cccs1 (stereo not shown) [C178, 2-(2-methoxyethyl)-N-(4-(oxazol-5-yl)phenyl)-1-oxo-3-(thiophen-2-yl)-1,2,3,4-tetrahydroisoquinoline-4-carboxamide]	0.036 (≈ 0.076 µM)	0.035 (≈ 0.0739 µM)	
COCCN1C(=O)c2c(ccc(OC)c2F)C(C(=O)Nc2cccc(OC)c2)C1c1cccs1 (stereo not shown) [C128, 8-fluoro-7-methoxy-2-(2-methoxyethyl)-N-(3-methoxyphenyl)-1-oxo-3-(thiophen-2-yl)-1,2,3,4-tetrahydroisoquinoline-4-carboxamide]	0.14 (≈ 0.289 µM)	0.4 (≈ 0.826 µM)	
COCCN1C(=O)c2ccccc2C(C(=O)Nc2ccc(-c3csc(C)n3)cc2)C1c1cccs1 (stereo not shown) [C157, 2-(2-methoxyethyl)-N-(4-(2-methylthiazol-4-yl)phenyl)-1-oxo-3-(thiophen-2-yl)-1,2,3,4-tetrahydroisoquinoline-4-carboxamide]	0.036 (≈ 0.0715 µM)	0.04 (≈ 0.0794 µM)	
COCCN1C(=O)c2c(F)cccc2C(C(=O)Nc2cccc(OC)c2)C1c1cccs1 (stereo not shown) [C51, 8-Fluoro-2-(2-methoxyethyl)-N-(3-methoxyphenyl)-1-oxo-3-(thiophen-2-yl)-1,2,3,4-tetrahydroisoquinoline-4-carboxamide]	< 0.4	0.5 (≈ 1.1 µM)	
COCCN1C(=O)c2ccccc2C(C(=O)Nc2cc(C(C)(C)C)on2)C1c1cccs1 (stereo not shown) [C142, N-(5-tert-butylisoxazol-3-yl)-2-(2-methoxyethyl)-1-oxo-3-(thiophen-2-yl)-1,2,3,4-tetrahydroisoquinoline-4-carboxamide]	0.22 (≈ 0.485 µM)	0.04 (≈ 0.0882 µM)	
COCCN1C(=O)c2ccccc2C(C(=O)Nc2ccc(C(=O)OC)cc2)C1c1cccs1 (stereo not shown) [C45, Methyl 4-(2-(2-methoxyethyl)-1-oxo-3-(thiophen-2-yl)-1,2,3,4-tetrahydroisoquinoline-4-carboxamido)benzoate]	12 (≈ 25.8 µM)	0.1 (≈ 0.215 µM)	
COCCN1C(=O)c2ccccc2C(C(=O)Nc2ccc3nc(C)ccc3c2)C1c1cccs1 (stereo not shown) [C168, 2-(2-methoxyethyl)-N-(2-methylquinolin-6-yl)-1-oxo-3-(thiophen-2-yl)-1,2,3,4-tetrahydroisoquinoline-4-carboxamide]	0.048 (≈ 0.102 µM)	0.037 (≈ 0.0785 µM)	
COCCN1C(=O)c2ccccc2C(C(=O)Nc2ccc(C#N)cc2)C1c1cccs1 (stereo not shown) [C20, N-(4-cyanophenyl)-2-(2-methoxyethyl)-1-oxo-3-(thiophen-2-yl)-1,2,3,4-tetrahydroisoquinoline-4-carboxamide]		0.4 (≈ 0.927 µM)	CC50 at 72 h [3]: 42 µg/mL (≈ 97.3 µM)
